Tested on: Sprague Dawley rats
Test: Survival in acute renal failure model (unilateral renal ischemia-reperfusion with contralateral nephrectomy)
Type: in vivo, rat
Conditions: Allopurinol 3 mg/kg single iv injection 60 min before ischemia; up to 7 days after reperfusion; control group 29%
Procedure: The protocol is similar to the one described by Narayan P et al, Am J Physiol Renal Physiol, 311(2):F352-61, 2016 and was approved by an ethics committee. In summary, general anesthesia is induced in male Sprague Dawley rats (250-300 g) using sodium pentobarbital (60 mg/kg, ip) instead of ketamine/xylazine in the protocol described by Narayan P et al, Am J Physiol Renal Physiol, 311 (2): F352-61, 2016. A skin incision is made on the dorsal surface and the left kidney is exposed by incisions on the flank. The left renal pedicle is then isolated and clamped for 60 minutes using atraumatic vascular clamps. The kidneys are replaced in the abdominal cavity to maintain temperature and the incision is covered with gauze soaked in 0.9% saline. After the ischemia time (60 minutes), the clamps are released to begin reperfusion. Reperfusion is monitored (kidney color change) for 1 to 2 minutes and physiological saline (1 mL) is administered to prevent dehydration. Next, a right kidney nephrectomy is performed and the incisions are closed with sutures. The animals are kept at approximately 37° C. using a thermoregulated system during the operation. Buprenorphine (0.2 mg/kg sc) is administered before the animals are returned to their cages and once a day until 4 days after reperfusion. […]
The compounds Micafungin (0.25 mg/kg), Anidulafungin (0.35 mg/kg) or the combination of the compounds Micafungin (0.25 mg/kg) and Allopurinol (3 mg/kg) are administered solubilized in physiological saline as a single intravenous injection into the tail vein 60 (±15) minutes before the onset of ischemia. The volume of administration of the compounds is determined on the basis of the body weight (2 mL/kg) of each animal. […]
For each experiment the curve of the number of surviving animals versus the number of days post-ischemia-reperfusion (Kaplan-Meier curve) is shown. The x-axis is graduated from the first day =0 to the seventh day =6 The y-axis is graduated from 0% to 100% of the initial population of the analyzed group. […]

With `Oc1ncnc2[nH]ncc12` [Allopurinol] the “Surviving animals at end of Kaplan-Meier curve (% of initial population of the group)” value was 63%.

Source: US11458189B2, “Cytoprotective drugs” (BALMES TRANSPLANTATION, priority 2017, dated 2022)
